# Assay results from patent publication US20240262806A1, “INHIBITORS OF NLRP3” (PTC THERAPEUTICS, INC., priority 2021, published 2024).
# Counter-ions that a name gives are not always drawn.
# System: NLRP3 inflammasome
# Assay: IL-1β Secretion Assay (NLRP3-dependent IL-1β secretion in PMA-differentiated THP-1 cells, nigericin activation, HTRF)
# Assay type: cell-based
# Settings: Homo sapiens, THP-1, THP-1 cells, 100 ng/mL PMA 24 h, compound 20 h, 2.5 μM Nigericin 3 h; read-out: IC50 IL-1β Inhibition
# Method in brief: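 PMA-differentiated THP-1 cells in RPMI with 5% FBS were treated with compounds at 7 concentrations in threefold DMSO dilutions. NLRP3 was activated with nigericin and secreted IL-1β measured by HTRF. IC50 from a logistic fit of percent inhibition versus concentration.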
row,Structure (SMILES),IC50 [nM]
1,Cc1cc(O)c(-c2nnc(N[C@@H]3CCCN(C4CCOC4)C3)n3cccc23)c(F)c1 (stereo partly shown) [Compound I-489],1 to 10
2,"COc1cc(C(F)(F)F)ccc1-c1nnc(N[C@@H]2CCCN(C)C2)n2ccnc12 [Compound I-386, 8-[2-Methoxy-4-(trifluoromethyl)phenyl]-N-[(3R)-1-methyl-3-piperidyl]imidazo[1,2-d][1,2,4]triazin-5-amine formic acid salt]",100 to 300
3,Oc1cc(C(F)(F)F)cc(F)c1-c1nnc(N[C@@H]2CCCN(C3CCOC3)C2)n2cccc12 (stereo partly shown) [Compound I-447],1 to 10
4,"CN1CCC[C@@H](Nc2nnc(-c3ncc(C4CC4)cc3O)c3ccccc23)C1 [Compound I-91, (R)-5-Cyclopropyl-2-(4-((1-methylpiperidin-3-yl)amino)phthalazin-1-yl)pyridin-3-ol]",< 1
5,CN1CC[C@@H](F)[C@@H](Nc2nnc(-c3ccc(C(F)(F)F)cc3O)c3ccncc23)C1 [Compound I-315],< 1
6,Oc1cc(C(F)(F)F)ccc1-c1nnc(N[C@H]2CCOC2)n2cccc12 [Compound I-459],10 to 100
7,Cc1cc2c(-c3c(C)cc(C(F)(F)F)cc3O)nnc(N[C@@H]3CCCN(C)C3)n2n1 [Compound I-560],1 to 10
8,Cc1cc(C)c(-c2nnc(N[C@@H]3CCCN(C)C3)c3cnccc23)c(C)c1 [Compound I-205],1 to 10
9,FC(F)Oc1cc(C(F)(F)F)ccc1-c1nnc(N[C@@H]2CCCN(C3CCC3)C2)c2cnccc12 [Compound I-312],< 1
10,FC(F)Oc1cc(C(F)(F)F)ccc1-c1nnc(N[C@@H]2CCOC2)n2cccc12 [Compound I-388],1 to 10
11,Cc1cc(O)c(-c2nnc(N[C@@H]3C[C@@H](F)CN(C)C3)n3cccc23)c(F)c1 [Compound I-444],< 1
12,C[C@@H](O)CNc1nnc(-c2ccc(C(F)(F)F)cc2OC(F)F)c2c(F)ccn12 [Compound I-440],10 to 100
13,Cc1cc2c(-c3ccc(C(F)(F)F)cc3C(F)(F)F)nnc(N[C@@H]3CCCN(C)C3)n2n1 [Compound I-382],1 to 10
14,Oc1cc(C(F)(F)F)ccc1-c1nnc(N[C@@H]2CCCN(CC(F)F)C2)c2cnccc12 [Compound I-277],< 1
15,C[C@]1(O)C[C@@H](Nc2nnc(-c3ccc(C(F)(F)F)cc3O)c3cncn23)C1 [Compound I-527],1 to 10
16,CC(=O)N1CCCC(Nc2nnc(-c3ccc(C(F)(F)F)cc3O)c3ccccc23)C1 (stereo not shown) [Compound I-64],10 to 100
17,CN1CCC[C@@H](Nc2nnc(-c3ccc(C(F)(F)F)cc3C(F)(F)F)c3ccncc23)C1 [Compound I-177],1 to 10
18,CN1CCC[C@H](Oc2nnc(-c3ccc(C(F)(F)F)cc3O)c3ccccc23)C1 [Compound I-22],100 to 300
19,Oc1cc(C(F)(F)F)ccc1-c1nnc(N[C@@H]2CCCCNC2)c2cnccc12 [Compound I-261],1 to 10
20,CN1CCC[C@@H](Nc2nnc(-c3ccc(C#N)cc3OC(F)F)c3ccncc23)C1 [Compound I-167],10 to 100
21,"Cc1cc2c(-c3ccc(Br)cc3OC(F)(F)F)nnc(N[C@@H]3CCCN(C)C3)n2n1 [Compound I-374, (R)-4-(4-Bromo-2-(trifluoromethoxy)phenyl)-2-methyl-N-(1-methylpiperidin-3-yl)pyrazolo[1,5-d][1,2,4]triazin-7-amine]",1 to 10
22,Cc1cc2c(-c3ccc(C(F)(F)F)cc3OC(F)F)nnc(N[C@@H]3CCCN(C)C3)n2c1 [Compound I-591],1 to 10

row,Structure (SMILES),IC50 [nM]
1,Cc1ccc(-c2nnc(N[C@@H]3CCCN(C)C3)c3c2CCC3)c(OC(F)F)c1 [Compound I-244],10 to 100
2,Cc1cccc(-c2nnc(N[C@@H]3CCCN(C)C3)c3cnccc23)c1O [Compound I-82],< 1
3,CN1CCC[C@@H](Nc2nnc(-c3ccc(C4CC4)cc3OC(F)F)c3c2CCC3)C1 [Compound I-246],10 to 100
4,CCN1CCC[C@@H](Nc2nnc(-c3ccc(Br)cc3O)c3cncn23)C1 [Compound I-628],< 1
5,[2H]C1(N2CCC[C@@H](Nc3nnc(-c4ccc(C(F)(F)F)cc4O)c4ccncc34)C2)CCC1 [Compound I-300],< 1
6,Oc1cc(C(F)(F)F)ccc1-c1nnc(N[C@H]2CNC[C@H](F)C2)c2cnccc12 [Compound I-306],< 1
7,Cc1ccc(-c2nnc(N[C@@H]3CCCN(C)C3)c3ccccc23)c(OC(F)F)c1 [Compound I-135],1 to 10
8,COCOc1cc(-c2ncco2)ccc1-c1nnc(N[C@H]2CCCN(C)C2)c2cnccc12 [Compound I-173],10 to 100
9,Oc1cc(C(F)(F)F)ccc1-c1nnc(NC2CCCNCC2)c2cnccc12 (stereo not shown) [Compound I-253],1 to 10
10,C[C@]1(O)C[C@@H](Nc2nnc(-c3ccc(C(F)(F)F)cc3C(F)(F)F)c3cccn23)C1 [Compound I-532],1 to 10
11,OCCN1CCC[C@@H](Nc2nnc(-c3ccc(Cl)cc3O)c3cccn23)C1 [Compound I-369],1 to 10
12,OCCN1CCC[C@@H](Nc2nnc(-c3ccc(C(F)(F)F)cc3C(F)(F)F)c3cccn23)C1 [Compound I-491],1 to 10
13,"CN1CCC[C@@H](Nc2nnc(-c3ccc(C(F)(F)F)cc3OC(F)F)c3cccn23)C1 [Compound I-322, 1-[2-(Difluoromethoxy)-4-(trifluoromethyl)phenyl]-N-[(3R)-1-methyl-3-piperidyl]pyrrolo[1,2-d][1,2,4]triazin-4-amine]",< 1
14,CN1C[C@H](F)C[C@@H](Nc2nnc(-c3ccc(OC(F)(F)F)cc3O)c3cccn23)C1 [Compound I-409],1 to 10
15,FC(F)Oc1cc(C(F)(F)F)ccc1-c1nnc(N[C@@H]2CCCNC2)c2cnccc12 [Compound I-311],1 to 10
16,CCN1CCC[C@@H](Nc2nnc(-c3ccc(C(F)(F)F)cc3OC(F)F)c3cnccc23)C1 [Compound I-235],1 to 10
17,CCc1ccc(-c2nnc(N[C@@H]3CCCN(C)C3)c3cnccc23)c(O)c1 [Compound I-307],< 1
18,COc1ccc(-c2nnc(N[C@@H]3CCCN(C)C3)c3cnccc23)c(O)c1 [Compound I-175],< 1
19,Oc1cc(C(F)(F)F)ccc1-c1nnc(N[C@H]2CCCOC2)c2cnccc12 [Compound I-310],1 to 10
20,Oc1cc(C(F)(F)F)ccc1-c1nnc(N[C@@H]2CCCN(C3COC3)C2)c2cnccc12 [Compound I-271],1 to 10
21,CN1CCCC[C@@H](Nc2nnc(-c3ccc(C(F)(F)F)cc3O)c3ccncc23)C1 [Compound I-187],< 1
22,CCN1CCC[C@@H](Nc2nnc(-c3ccc(OC(F)(F)F)cc3OC(F)F)c3cccn23)C1 [Compound I-565],1 to 10

row,Structure (SMILES),IC50 [nM]
1,Oc1cc(C(F)(F)F)ccc1-c1nnc(NC2CNCCOC2)c2ccncc12 (stereo not shown) [Compound I-230],10 to 100
2,CN1CCC[C@@H](Nc2nnc(-c3cnc(C(F)(F)F)cc3O)c3ccccc23)C1 [Compound I-79],10 to 100
3,CN1CCC[C@@H](Nc2nnc(-c3ccc(N4CCCC4)cc3O)c3ccccc23)C1 [Compound I-93],1 to 10
4,CN(C)CC1CCN(c2nnc(-c3ccc(C(F)(F)F)cc3O)c3ccccc23)C1 (stereo not shown) [Compound I-203],10 to 100
5,CN1CCC[C@@H](Nc2nnc(-c3ccc(-c4ccn(C)c4)cc3O)c3ccccc23)C1 [Compound I-94],1 to 10
6,FC(F)(F)c1ccc(-c2nnc(N[C@@H]3CCCN(C4CCOCC4)C3)n3cccc23)c(C(F)(F)F)c1 [Compound I-516],1 to 10
7,C[C@H](O)CNc1nnc(-c2ccc(C(F)(F)F)cc2O)c2c(F)ccn12 [Compound I-595],10 to 100
8,Cc1cccc2c(N[C@@H]3CCCN(C)C3)nnc(-c3ccc(C(F)(F)F)cc3O)c12 [Compound I-8],1 to 10
9,COc1cc(O)c(-c2nnc(N[C@@H]3C[C@@H](F)CN(C)C3)n3cccc23)c(F)c1 [Compound I-502],< 1
10,OCCN1CCC[C@@H](Nc2nnc(-c3ccc(C(F)(F)F)cc3O)c3cccn23)C1 [Compound I-353],1 to 10
11,"CN1CCC[C@@H](Nc2nnc(-c3ccc(C(F)(F)F)cc3O)c3c(Cl)ccn23)C1 [Compound I-104, 2-[8-Chloro-4-[[(3R)-1-methyl-3-piperidyl]amino]pyrrolo[1,2-d][1,2,4]triazin-1-yl]-5-(trifluoromethyl)phenol]",1 to 10
12,CN1CCC[C@@H](Nc2nnc(-c3ccccc3O)c3ccccc23)C1 [Compound I-33],1 to 10
13,CN1CCC[C@@H](Nc2nnc(-c3c(O)cc(Cl)cc3F)c3ccncc23)C1 [Compound I-170],< 1
14,CN1CCC[C@@H](Nc2nnc(-c3c(O)cc(C4CC4)cc3F)c3cccn23)C1 [Compound I-380],< 1
15,Oc1cc(C(F)(F)F)ccc1-c1nnc(N[C@H]2CNC[C@@H](O)C2)c2ccccc12 [Compound I-53],1 to 10
16,CN1CCC[C@@H](Nc2nnc(-c3ccc(C(F)(F)F)cc3OC(F)F)c3c2CCC3)C1 [Compound I-236],1 to 10
17,Cc1cc(C#N)ccc1-c1nnc(N[C@@H]2CCCN(C)C2)c2cnccc12 [Compound I-217],10 to 100
18,CN1CCC[C@@H](Nc2nnc(-c3ccc(OC(F)F)cc3OC(F)F)c3cccn23)C1 [Compound I-612],1 to 10
19,"CN1CCC[C@@H](Nc2nnc(-c3ccc(C(F)(F)F)cc3CC(F)(F)F)c3ccncc23)C1 [Compound I-214, (R)—N-(1-Methylpiperidin-3-yl)-1-(2-(2,2,2-trifluoroethyl)-4-(trifluoromethyl)-phenyl)pyrido[3,4-d]pyridazin-4-amine]",< 1
20,CN1CCC[C@H]1CNc1nnc(-c2ccc(C(F)(F)F)cc2O)c2ccccc12 [Compound I-87],1 to 10
21,C[C@]1(O)C[C@@H](Nc2nnc(-c3ccc(C(F)(F)F)cc3OC(F)F)c3c(F)ccn23)C1 [Compound I-525],10 to 100
22,CN1CCC[C@@H](Nc2nnc(-c3ccc(Cl)cc3C(F)F)c3ccncc23)C1 [Compound I-239],1 to 10

# Same assay, conditions: THP-1 cells, 100 ng/mL PMA 24 h, compound 20 h, 2.5 μM Nigericin 3 h; read-out: IC50 IL-1β Inhibition
row,Structure (SMILES),IC50 [nM]
1,CN1CCC[C@@H](Nc2nnc(-c3c(F)ccc(Cl)c3O)c3ccncc23)C1 [Compound I-211],10 to 100
